Measurements from US6551831B2, “Dyes and methods of detection of nucleic acid in immature red blood cells” (Coulter International Corp., priority 2000, dated 2003).
Read-outs that look alike come from different tables or passages of the source.

Assays:
calf liver RNA = assay: Fluorescence of dyes in PBS with and without free calf liver RNA (spectrofluorometer); assay type: binding; details: for Fluorescence enhancement ratio (Bound/Unbound): RNA-bound dye intensity / free dye intensity; for Fluorescence Intensity Unbound to RNA / Fluorescence Intensity Bound to RNA: Table 1, peak emission wavelength; for Fluorescence Intensity Unbound to RNA: dye 2 μM in PBS, no RNA; for Fluorescence Intensity Bound to RNA: dye 2 μM, calf liver RNA 8 mg/ml in PBS
Method: For fluorescence measurements, a stock solution of each compound in DMSO was made (as described in Example 1D). A portion of this stock solution was diluted in PBS to obtain a dye concentration of 2 μm. 1 ml of this dilute solution was placed in a glass cuvette and the fluorescence spectra obtained exciting the dye at its excitation wavelength maximum. Next, 1 ml of a solution of free calf liver RNA (Sigma) dissolved in PBS at a concentration of 8 mg/ml, and a measured volume of the dye stock solution was mixed to obtain a dye concentration of 2 μM in the RNA solution. This dye solution diluted in the RNA solution was placed in a glass cuvette and the fluorescence spectra measured using the same excitation as in the previous measurement.
These intensities were obtained at the peak emission wavelengths of each fluorescence spectra measured as described above. FIG. 1C compares the fluorescence intensities of the RNA-bound and unbound dyes in graphical form.

reticulocytes [1] = system: reticulocytes
Torula yeast RNA = assay: Fluorescence of dyes in PBS with and without free Torula yeast RNA, excitation 633 nm; assay type: binding; details: Table 4, Group-III dyes; for Fluorescence Intensity Unbound to RNA: conc. 2 μm in PBS, peak of emission spectrum; for Fluorescence Intensity Bound to RNA 1 mg/ml: conc. 2 μm
Method: To compare the relative fluorescence intensities of the dyes in bound and unbound states, fluorescence measurements were conducted in a spectrofluorometer by exciting each dye solution at 633 nm under appropriate conditions, recording the fluorescence spectrum of each sample, and measuring the intensities at the peak of these fluorescence spectra. […] A portion of the stock solution for the Dye-1 was diluted in PBS to obtain a dye concentration of […]. […] The fluorescence spectrum of this dye solution in presence of RNA was measured by illuminating the sample at 633 nm.

Calf thymus DNA = assay: Fluorescence of dyes in PBS with and without free calf thymus DNA, excitation 633 nm; assay type: binding; details: Table 5; for Fluorescence Intensity Unbound to DNA: Group-III dyes in PBS, peak of emission spectrum; for Fluorescence Intensity Bound to DNA 0.5 mg/ml: Group-III dyes
Method: To compare the relative fluorescence intensities of the dyes in bound and unbound states, fluorescence measurements were conducted in a spectrofluorometer by exciting each dye solution at 633 nm under appropriate conditions, recording the fluorescence spectrum of each sample, and measuring the intensities at the peak of these fluorescence spectra. […] Next, the fluorescence spectrum of the dye solution was measured by illuminating the sample at 633 nm.

reticulocytes [2] = assay: Rapid staining of reticulocytes in whole blood with dye in rapid staining composition, flow cytometry (HeNe 632.8 nm); assay type: cell-based; details: 5 μM dye, analyzed immediately
Method: Approximately 11.5 mW of 632.8 nm laser light from the above laser was incident on the beam shaping optics of the flow cytometer. Forward light scatter (FS), side scatter (SS) and one fluorescence (FL) parameter in the orthogonal direction were measured to analyze the red cells. The red cells were gated on a SS vs. FS dotplot. A fixed gate was then used to enumerate […] on a FL vs. FS dotplot. […] The […] reagent is a solution comprising about 20 μg/ml Dodecyl-β-D-maltoside and 0.05% Proclin 300 in PBS at about pH 7.4 and about 290 mOsm. […] The mixture was then aspirated into the XLTM flow cytometer containing the red HeNe laser for analysis. […] The mixture was then aspirated into the XLTM flow cytometer containing the red HeNe laser for analysis. […] The […] reagent is a solution comprising about 20 μg/ml Dodecyl-β-D-maltoside and 0.05% Proclin 300 in PBS at about pH 7.4 and about 290 mOsm. […] The […] reagent is a solution comprising about 20 μg/ml Dodecyl-β-D-maltoside and 0.05% Proclin 300 in PBS at about pH 7.4 and about 290 mOsm. […] The […] reagent is a solution comprising about 20 μg/ml Dodecyl-β-D-maltoside and 0.05% Proclin® 300 in PBS at about pH 7.4 and about 290 mOsm.

Compound | Fluorescence enhancement ratio (Bound/Unbound) (calf liver RNA) | Fluorescence Intensity Unbound to RNA (calf liver RNA) | Fluorescence Intensity Bound to RNA (calf liver RNA) | Fluorescence Intensity Unbound to RNA (Torula yeast RNA) | Fluorescence Intensity Bound to RNA 1 mg/ml (Torula yeast RNA) | Fluorescence Intensity Unbound to DNA (Calf thymus DNA) | Fluorescence Intensity Bound to DNA 0.5 mg/ml (Calf thymus DNA) | other results
Cc1ccc2c(c1)sc(/C=C/C=C1\C=CN(C(C)C)c3ccccc31)[n+]2CCO [ReticRed5] | 292.884 | 2.24 | 656.06 |  |  |  |  | 
CCNc1cc2[s+]c3cc(NCC)c(C)cc3nc2cc1C.[Cl-] [New Methylene Blue] |  |  |  |  |  |  |  | retic percentage (reticulocytes [1]; Gen*S method, blood sample of Example 3): 6.7%; retic percentage (reticulocytes [1]; normal donor of Example 4 Run 3, commercially available clinical hematology analyzer): 0.95%
C[n+]1c(/C=C/C=C2\C=CN(Cc3ccccc3B(O)O)c3ccccc32)sc2ccccc21 [Dye-6] |  |  |  | 6 | 410 | 4 | 380 | 
OCC[n+]1c(/C=C/C=C2\C=CN(Cc3ccccc3)c3ccccc32)sc2ccccc21 [Dye-5] |  |  |  | 10 | 420 | 10 | 660 | 
COc1cc(CN2C=C/C(=C\C=C\c3sc4ccccc4[n+]3CCO)c3ccccc32)cc(OC)c1 [Dye-3] |  |  |  | 10 | 328 | 15 | 400 | percentage of reticulocytes enumerated (reticulocytes [2]; Example 9 Run 7, normal donor): 2.3%; percentage of reticulocytes enumerated (reticulocytes [2]; Example 9 Run 8, abnormal donor (reference 12%)): approximately 14.6%; percentage of reticulocytes enumerated (reticulocytes [2]; Example 9 Run 9, another abnormal donor (reference 27%)): approximately 24%
Cc1ccc2c(c1)sc(/C=C/C=C1\C=CN(CCO)c3ccccc31)[n+]2CCO [ReticRed6] | 225.164 | 2.75 | 619.2 |  |  |  |  | 
